Columns and labels:
[1] = test system: iPS cells; assay: Viable iPS cell number with purified albumin re-carrying fatty acid (Example 4, FIG. 4); assay type: cell-based, human; details: fatty acid re-adsorbed to albumin, 1 week
Method: Proliferative effect of various test compounds on induced pluripotent stem cell (iPS cell) was evaluated. As the iPS cell, 201B7 strain purchased from iPS Academia Japan, Inc. was used. Cell culture was performed under conditions of 5% CO2/37° C. and using a culture vessel (Nippon Becton Dickinson Company, Ltd., Falconculture petri dish or Falconculture plate) coated with a basal membrane matrix.
Various test compounds were added at given concentrations to a medium of “E8” composition (disclosed in Nature Methods, 2011, 8, 424-429, which is incorporated herein by reference in its entirety) currently considered to be the minimum composition for cultivating human pluripotent stem cells, and used for culture, from which the effect was studied.
The solution was shaken at 37° C. for 7 hours, left standing at 4° C. overnight, and filtered with a 0.22 μm syringe filter. […] The mixture was added to a medium such that the final concentration of albumin was 2.6 g/L.
The final concentration in and the amount of addition to the medium are also the same.
Using the medium produced as mentioned above, the influence of each fatty acid on the proliferation of iPS cells was studied. A 6-well plate coated with a fragment containing an active domain of laminin 511 at 5 μg/well (iMatrix-511 (Nippi, Incorporated)) as a basal membrane matrix was used. iPS cells were single-cell seeded at 13,000 cells/well and cultured for 1 week. Y-27632 (NACALAI TESQUE, INC.: 08945-84) was added at a final concentration of 10 μM only to a medium to be used for seeding. As a positive control, iPS cells were cultured using an albumin free of re-adsorption of fatty acid, i.e., albumin after a fatty acid removal treatment.
The cells were detached from each well by TrypLE Select (Life Technologies: 12563-011), and the number of the viable cells was measured.

[2] = test system: stem cells; details: WO 2013/006675; cited from earlier work
[3] = final concentration in medium 28 μM
[4] = final concentration in medium 57 μM

Structure (SMILES)	effect on proliferation of iPS cells (number of viable cells) [1, 3]	effect on proliferation of iPS cells (number of viable cells) [1, 4]	effect on culture of stem cells [2]
CCCCC/C=C\C/C=C\C/C=C\C/C=C\CCCC(=O)O [arachidonic acid]	the cells died	the cells died	
CCCCCCCC(=O)O [octanoic acid]			harmful
CCCCCCCCCCCCCCCCCC(=O)O [stearic acid]	the cells died	the cells died	
CCCCCCCCCCCCCCCC(=O)O [palmitic acid]	the cells died	the cells died	
CCCCC/C=C\C/C=C\CCCCCCCC(=O)O [linoleic acid]	markedly suppressed	the cells died	
CCCCCCCC/C=C\CCCCCCCC(=O)O [oleic acid]	smaller than that of the positive control	smaller than that of the positive control	

From US11859205B2, “Medium for culturing stem cells” (AJINOMOTO CO., INC., priority 2013, dated 2024)
